According to patent US8580955B2, “Purification method and production method for cellobiose” (Matsutani Chemical Industry Co., Ltd., priority 2005, dated 2013):
One block for each molecule: values may come before it.

Columns and labels:
[1] = Determination of solubility of cellobiose (Karl Fisher moisture of supernatant); assay type: physicochemical; conditions: supernatant of 20% (w/v) solution after crystal formation, 100% minus moisture content
Description: There was prepared a 20% (w/v) solution of a commercially available cellobiose (manufactured by Wako Pure Chemical Co., Ltd.), the resulting solution was introduced into a thermostatic chamber maintained at a temperature ranging from 10 to 60° C. to thus form crystals of cellobiose, thereafter the content of water present in the supernatant was determined using a Karl Fisher moisture meter and then the solubility was calculated by subtracting the moisture content from 100%.

[2] = Solubility in water expressed as dissolution time; assay type: physicochemical; conditions: for Dissolution Time: 10 g in 100 mL deionized water at 25 °C with stirring
Description: The solubility (the rate of dissolution) of crystalline cellobiose in water may vary depending on the rates of the stereoisomers (the rates of the α- and β-anomers). For instance, when the cellobiose crystals are dissolved in water, the resulting solution is maintained at a high temperature falling within the range in which the solution is not boiled, preferably 80 to 95° C. for a time ranging from 0.5 to 2.0 hours and then the solution is dried while maintaining the same at that temperature, the ratio of the α-anomer is increased to thus give cellobiose powder improved in its solubility in water.
The cellobiose-containing sugar solution having a high content of cellobiose, prepared in Example 4 was concentrated to a solid content concentration of 20%, the sugar solution was then maintained at a temperature of 20° C., 60° C. or 80° C. for one hour and, immediately thereafter, the solution was dried in a spray dryer to thus give cellobiose powder. These powdery cellobiose products were inspected for the solubility in water and the distribution rate of anomers. In this respect, the distribution rate of anomers was determined using Gas Chromatograph GC14 available from Shimadzu Corporation which was equipped with a column: DB1701 (inner diameter: 0.25 mm; length: 30 m) available from J & W Company. More specifically, each sample (1.0 mg) was dissolved in 0.769 mL of pyridine, 0.077 mL of TMSC and 0.154 mL of HMDS were added to the resulting solution, the mixture was maintained at room temperature for one hour and then it was used in the gas chromatography analysis.

Solubility of Cellobiose ([1]; 10 °C): 13.5%
Solubility of Cellobiose ([1]; 20 °C): 14.0%
Solubility of Cellobiose ([1]; 30 °C): 14.7%
Solubility of Cellobiose ([1]; 40 °C): 18.4%
Solubility of Cellobiose ([1]; 50 °C): 22.9%
Solubility of Cellobiose ([1]; 60 °C): 26.3%
SMILES: O=C[C@H](O)[C@@H](O)[C@H](O[C@@H]1O[C@H](CO)[C@@H](O)[C@H](O)[C@H]1O)[C@H](O)CO [Cellobiose, cellobiose]

time required for the dissolution ([2]; 10 g sample in 100 mL deionized water at 25 °C with stirring, crystals): 12.5 min
SMILES: O=C[C@H](O)[C@@H](O)[C@H](O[C@@H]1O[C@H](CO)[C@@H](O)[C@H](O)[C@H]1O)[C@H](O)CO [Example 1, cellobiose]

Dissolution Time ([2]; powder spray-dried from sugar solution kept at 20 °C for one hour): 8.0 min
Dissolution Time ([2]; powder spray-dried from sugar solution kept at 60 °C for one hour): 4.0 min
Dissolution Time ([2]; powder spray-dried from sugar solution kept at 80 °C for one hour): 2.5 min
SMILES: O=C[C@H](O)[C@@H](O)[C@H](O[C@@H]1O[C@H](CO)[C@@H](O)[C@H](O)[C@H]1O)[C@H](O)CO [Example 5, cellobiose]
